In patent US20260062422A1 (Halda Therapeutics OpCo, Inc., priority 2022, published 2026):

Key:
T47D cells = assay: Cellular growth inhibition assay for T47D cells, CellTiter-Glo; format: cell-based, human; details: 72 hours treatment, CellTiter-Glo 2.0 cell viability
In short: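 Luminescence from CellTiter-Glo 2.0 after 72 h of compound exposure gives the viability signal. Cells grew in insulin-supplemented (0.2 units/mL) DMEM with 10% FBS and were treated one day after seeding at 0.5% DMSO. GI50 values come from four-parameter nonlinear regression.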

[1] = system: T-Rex 293 cell line SC3 cells having increased expression of androgen receptor protein due to exposure to doxycycline; assay: Cellular growth inhibition, T-Rex 293 SC3 cells with doxycycline (androgen receptor induced), CellTiter-Glo; format: cell-based; details: T-Rex 293 SC3 cells with 10 ng/mL doxycycline (increased androgen receptor expression)
In short: (§1)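 With DMSO (0.5%) vehicle as negative control, compounds treated SC3 cells for 72 h in medium containing charcoal-dextran FBS ± doxycycline. This T-Rex 293 clone expresses transfected wild-type AR on induction. Readout: CellTiter-Glo 2.0; GI50 by nonlinear regression.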

[2] = system: T-Rex 293 cell line SC3 cells lacking increased expression of androgen receptor protein; assay: Cellular growth inhibition, T-Rex 293 SC3 cells without doxycycline, CellTiter-Glo; format: cell-based; details: T-Rex 293 SC3 cells not exposed to doxycycline, CellTiter-Glo 2.0
In short: as §1

VCaP cells = assay: Cellular growth inhibition assay for VCaP cells, CellTiter-Glo; format: cell-based, human; details: 72 hours treatment, CellTiter-Glo 2.0
In short: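 GI50 values come from four-parameter curve fits of luminescence data normalized to a zero baseline. Compound, in medium with 0.5% DMSO, was added one day after plating and left for 72 h before CellTiter-Glo 2.0 addition.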

Compound | GI50 (T47D cells; Homo sapiens, T47D, 72 h) | GI50 ([1]; 72 h) | GI50 ([2]; 72 h) | GI50 (VCaP cells; Homo sapiens, VCaP, 72 h) | GI50 ([1]; 72 hours) | GI50 ([2]; 72 hours) | GI50 (VCaP cells) | GI50 (T47D cells)
Cc1sc2c(c1C)C(c1ccc(OC3CCN(C4CCN(c5ncc(C(=O)N[C@H]6C(C)(C)[C@H](Oc7ccc(C#N)c(Cl)c7)C6(C)C)cn5)CC4)CC3)cc1)=N[C@@H](C)c1nnc(C)n1-2 [Compound I-325] | 500 to 1500 nM | < 500 nM | 1500 to 3000 nM | > 3000 nM |  |  |  | 
Cc1sc2c(c1C)C(c1ccc(CN3CCN(C(=O)c4ncc(C(=O)N[C@H]5C(C)(C)[C@H](Oc6ccc(C#N)c(Cl)c6)C5(C)C)cn4)CC3)cc1)=N[C@@H](Cc1ncco1)c1nnc(C)n1-2 [Compound I-290] | 1500 to 3000 nM | < 500 nM | 500 to 1500 nM | < 500 nM |  |  |  | 
Cc1sc2c(c1C)C(c1ccc(C(=O)N3CCN(Cc4ncc(C(=O)N[C@H]5C(C)(C)[C@H](Oc6ccc(C#N)c(Cl)c6)C5(C)C)cn4)CC3)cc1)=N[C@@H](Cc1ncco1)c1nnc(C)n1-2 [Compound I-327] | > 3000 nM | > 3000 nM | > 3000 nM | > 3000 nM |  |  |  | 
Cc1noc2c1-c1ccccc1C(c1ccc(O[C@H]3C[C@]4(CN(c5ncc(C(=O)N[C@H]6C(C)(C)[C@H](Oc7ccc(C#N)c(Cl)c7)C6(C)C)cn5)CCO4)C3)cc1)=N[C@@H]2Cc1ncco1 [Compound I-224] | > 3000 nM | < 500 nM | > 3000 nM | < 500 nM |  |  |  | 
Cc1noc2c1-c1ccccc1C(c1ccc(OC3CC4(CCN(c5ncc(C(=O)N[C@H]6C(C)(C)[C@H](Oc7ccc(C#N)c(Cl)c7)C6(C)C)cn5)CC4)C3)cc1)=N[C@H]2Cc1ncco1 [Compound I-222] | > 3000 nM | < 500 nM | > 3000 nM | < 500 nM |  |  |  | 
Cc1sc2c(c1C)C(c1ccc(N3CCC[C@H](C(=O)N4CCC[C@@H](c5ncc(C(=O)N[C@H]6C(C)(C)[C@H](Oc7ccc(C#N)c(Cl)c7)C6(C)C)cn5)C4)C3)cc1)=N[C@H](Cc1ncco1)c1nnc(C)n1-2 [Compound I-339] | > 3000 nM | > 3000 nM | > 3000 nM | > 3000 nM |  |  |  | 
Cc1sc2c(c1C)C(c1ccc(O[C@@H]3CCC4(CCN(c5ncc(C(=O)N[C@H]6C(C)(C)[C@H](Oc7ccc(C#N)c(Cl)c7)C6(C)C)cn5)C4)C3)cc1)=N[C@@H](Cc1ncco1)c1nnc(C)n1-2 (stereo partly drawn) [Compound I-177] | < 500 nM | < 500 nM | < 500 nM | < 500 nM |  |  |  | 
Cc1sc2c(c1C)C(c1ccc(C(=O)N(C)CCCc3ncc(C(=O)N[C@H]4C(C)(C)[C@H](Oc5ccc(C#N)c(Cl)c5)C4(C)C)cn3)cc1)=N[C@H](Cc1ncco1)c1nnc(C)n1-2 [Compound I-343] | 1500 to 3000 nM | 1500 to 3000 nM | > 3000 nM | 1500 to 3000 nM |  |  |  | 
Cc1sc2c(c1C)C(c1ccc(NCC3(F)CCN(c4ncc(C(=O)N[C@H]5C(C)(C)[C@H](Oc6ccc(C#N)c(Cl)c6)C5(C)C)cn4)CC3)cc1)=NC(Cc1ncco1)c1nnc(C)n1-2 (stereo partly drawn) [Compound I-634] | < 500 nM | < 500 nM | > 3000 nM | 500 to 1500 nM |  |  |  | 
Cc1sc2c(c1C)C(c1ccc(O[C@@H]3CCOC34CN(c3ncc(C(=O)N[C@H]5C(C)(C)[C@H](Oc6ccc(C#N)c(Cl)c6)C5(C)C)cn3)C4)cc1)=N[C@@H](Cc1ncco1)c1nnc(C)n1-2 [Compound I-184] | < 500 nM | < 500 nM | < 500 nM | < 500 nM |  |  |  | 
Cc1sc2c(c1C)C(c1ccc(C[C@@H]3CC[C@@]4(CCCN(c5ncc(C(=O)N[C@H]6C(C)(C)[C@H](Oc7ccc(C#N)c(Cl)c7)C6(C)C)cn5)C4)C3)cc1)=N[C@@H](Cc1ncco1)c1nnc(C)n1-2 [Compound I-164] | 500 to 1500 nM | < 500 nM | > 3000 nM | 500 to 1500 nM |  |  |  | 
Cc1sc2c(c1C)C(c1ccc(C(C)(C)N3CC4(CCN(c5ncc(C(=O)N[C@H]6C(C)(C)[C@H](Oc7ccc(C#N)c(Cl)c7)C6(C)C)cn5)CC4)C3)cc1)=N[C@@H](Cc1ncco1)c1nnc(C)n1-2 [Compound I-396] | > 3000 nM |  |  |  | > 3000 nM | > 3000 nM | > 3000 nM | 
CC[C@@H]1N=C(c2ccc(CC3CCC4(C3)CN(c3ncc(C(=O)N[C@H]5C(C)(C)[C@H](Oc6ccc(C#N)c(Cl)c6)C5(C)C)cn3)CCO4)cc2)c2c(sc(C)c2C)-n2c(C)nnc21 (stereo partly drawn) [Compound I-612] |  | < 500 nM |  | 500 to 1500 nM |  | 500 to 1500 nM |  | 1500 to 3000 nM
Cc1sc2c(c1C)C(c1ccc(OC[C@H]3C[C@]4(CCCN(c5ncc(C(=O)N[C@H]6C(C)(C)[C@H](Oc7ccc(C#N)c(Cl)c7)C6(C)C)cn5)C4)C3)cc1)=N[C@@H](C)c1nnc(C)n1-2 [Compound I-350] | > 3000 nM | < 500 nM | > 3000 nM | < 500 nM |  |  |  | 
CCNC(=O)C[C@@H]1N=C(c2ccc(CCC3CN(c4ncc(C(=O)N[C@H]5C(C)(C)[C@H](Oc6ccc(C#N)c(Cl)c6)C5(C)C)cn4)C3)cc2)c2c(sc(C)c2C)-n2c(C)nnc21 [Compound I-93] | 500 to 1500 nM | < 500 nM | 500 to 1500 nM | < 500 nM |  |  |  | 
Cc1sc2c(c1C)C(c1ccc(-c3csnc3OC3CCN(c4ncc(C(=O)N[C@H]5C(C)(C)[C@H](Oc6ccc(C#N)c(Cl)c6)C5(C)C)cn4)CC3)cc1)=N[C@@H](Cc1ncco1)c1nnc(C)n1-2 [Compound I-431] | > 3000 nM | < 500 nM | > 3000 nM | < 500 nM |  |  |  | 
Cc1sc2c(c1C)C(c1ccc(C[C@H]3C[C@H]([C@@H]4CCCN(c5ncc(C(=O)N[C@H]6C(C)(C)[C@H](Oc7ccc(C#N)c(Cl)c7)C6(C)C)cn5)C4)C3)cc1)=N[C@@H](Cc1ncco1)c1nnc(C)n1-2 [Compound I-162] | < 500 nM | < 500 nM | < 500 nM | < 500 nM |  |  |  | 
Cc1sc2c(c1C)C(c1ccc(N3CCN(C(=O)c4ncc(C(=O)N[C@H]5C(C)(C)[C@H](Oc6ccc(C#N)c(Cl)c6)C5(C)C)cn4)CC3)cc1)=N[C@@H](Cc1ncco1)c1nnc(C)n1-2 [Compound I-340] | 1500 to 3000 nM | > 3000 nM | > 3000 nM | > 3000 nM |  |  |  | 
Cc1sc2c(c1C)C(c1ccc(CC3CC(OC4CCN(c5ncc(C(=O)N[C@H]6C(C)(C)[C@H](Oc7ccc(C#N)c(Cl)c7)C6(C)C)cn5)CC4)C3)cc1)=N[C@@H](C)c1nnc(C)n1-2 (stereo partly drawn) [Compound I-445] | < 500 nM | < 500 nM | > 3000 nM |  |  |  | < 500 nM | 
Cc1sc2c(c1C)C(c1ccc(O[C@H]3CO[C@]4(CCCN(c5ncc(C(=O)N[C@H]6C(C)(C)[C@H](Oc7ccc(C#N)c(Cl)c7)C6(C)C)cn5)C4)C3)cc1)=N[C@@H](Cc1ncco1)c1nnc(C)n1-2 [Compound I-192] | 500 to 1500 nM | < 500 nM | 500 to 1500 nM | 500 to 1500 nM |  |  |  | 
Cc1sc2c(c1C)C(c1ccc(C(=O)N3CC[C@]4(CCCN(c5ncc(C(=O)N[C@H]6C(C)(C)[C@H](Oc7ccc(C#N)c(Cl)c7)C6(C)C)cn5)C4)C3)cc1)=N[C@H](Cc1ncco1)c1nnc(C)n1-2 [Compound I-259] | 500 to 1500 nM | < 500 nM | > 3000 nM | 1500 to 3000 nM |  |  |  | 
Cc1sc2c(c1C)C(c1ccc(C#C[C@H]3C[C@@]4(CCCN(c5ncc(C(=O)N[C@H]6C(C)(C)[C@H](Oc7ccc(C#N)c(Cl)c7)C6(C)C)cn5)C4)C3)cc1)=N[C@@H](C)c1nnc(C)n1-2 [Compound I-378] | > 3000 nM | < 500 nM | > 3000 nM | < 500 nM |  |  |  | 
Cc1sc2c(c1C)C(c1ccc(C[C@@H]3CC[C@]4(C3)CN(c3ncc(C(=O)N[C@H]5C(C)(C)[C@H](Oc6ccc(C#N)c(Cl)c6)C5(C)C)cn3)CCO4)cc1)=N[C@H](Cc1ncco1)c1nnc(C)n1-2 [Compound I-312] | 1500 to 3000 nM | < 500 nM | < 500 nM | < 500 nM |  |  |  | 
[2H]C([2H])(c1ccc(C2=N[C@@H](Cc3ncco3)c3nnc(C)n3-c3sc(C)c(C)c32)cc1)N1CC[C@]2(CCCN(c3ncc(C(=O)N[C@H]4C(C)(C)[C@H](Oc5ccc(C#N)c(Cl)c5)C4(C)C)cn3)C2)C1 [Compound I-434] | < 500 nM | < 500 nM | > 3000 nM | < 500 nM |  |  |  | 
Cc1sc2c(c1C)C(c1ccc(OC3CC4(C3)CN(c3ncc(C(=O)N[C@H]5C(C)(C)[C@H](Oc6ccc(C#N)c(Cl)c6)C5(C)C)cn3)C4)cc1)=N[C@H](Cc1ncco1)c1nnc(C)n1-2 [Compound I-199] | < 500 nM | < 500 nM | < 500 nM | < 500 nM |  |  |  | 
Cc1sc2c(c1C)C(c1ccc(O[C@H]3C[C@@]4(CCCN(c5ncc(C(=O)N[C@H]6C(C)(C)[C@H](Oc7ccc(C#N)c(Cl)c7)C6(C)C)cn5)C4)C3)cc1)=N[C@@H](C)c1nnc(C)n1-2 [Compound I-392] | 500 to 1500 nM | < 500 nM | > 3000 nM | 500 to 1500 nM |  |  |  | 
Cc1sc2c(c1C)C(c1ccc(CN3CC4(C3)CN(c3ncc(C(=O)N[C@H]5C(C)(C)[C@H](Oc6ccc(C#N)c(Cl)c6)C5(C)C)cn3)CCO4)cc1)=NC(Cc1ncco1)c1nnc(C)n1-2 (stereo partly drawn) [Compound I-139] | < 500 nM | < 500 nM | < 500 nM | < 500 nM |  |  |  | 
